For one test, the system named is B6 mouse. Conditions: 15 days after PTU treatment.
In the next test the test system is C57B1/6 mice. The procedure: Cardiac injury. Myocardial injury is cryogenically initiated, employing a technique adapted from Taylor et al. (1998) (ref 28). Adult MRL and C57B1/6 mice (6-8 weeks of age) were anaesthetized using an intraperitoneal injection of ketamine (100 mg/kg) and xylazine (15 mg/kg). A 2 mm diameter blunt probe cooled to the temperature of liquid Nitrogen is then introduced, trans-diaphragmatically, to the right ventricular surface of the heart.
Access to the diaphragm was accomplished by a 6-8 mm incision made through the skin on the ventral surface of the abdomen below the ribcage approximately 5 mm posterior to—and approximately 5 mm to the left of the ventral midline—the sternum. The underlying musculature was incised to an equivalent extent. The diaphragm was exposed using forceps to retract the medial lobe of the liver. The right ventricular surface of the heart was thus presented directly adjacent to, and clearly visible through, the diaphragm. Injury to the heart was achieved by holding the cryoprobe in contact with the diaphragmatic surface for 10 seconds and repeated using a second, identical cryoprobe. The abdominal musculature was then repositioned and closed using 6-0 […] suture. The 6-0 nylon suture was also used for skin closure.
Histology Frozen sections: Hearts were removed and frozen in isopentane cooled to −160° C. in liquid nitrogen. Eight micron-thick sections were cut for immunohistochemistry and histology. Fixed sections: Hearts were fixed in Prefer Fixative (Anatheh Ltd.). Paraffin-embedded sections cut to a thickness of 5 microns were used for both histology and immunohistochemistry.
We also treated nonhealer C57B1/6 mice with PTU, which is known to inhibit thyroid activity.

The next test concerns MRL mice. The test is described as follows: Cryo-injury of the heart in MRL (healer) mice given slow-release T3 pellets. It is filed as in vivo, mouse. The following applies: pellets containing 0.01 mg T3, slow release (21 days), 0.0005 mg/day, injured one day later. The procedure:
The underlying musculature was incised to an equivalent extent.
To determine whether administering T3 to MRL mice inhibits healing of ear and heart wounds, we placed pellets containing 0.01 mg of T3 in a slow release formulation (21 days) in MRL mice. Via these pellets, the mice received 0.0005 mg/day of T3 . Mice were injured one day later.

Setting [1] is: wounded C57B1/6 mice pretreated with PTU.

The structures appear in SMILES notation.

In the case of `CCCc1cc(=O)[nH]c(=S)[nH]1` [PTU, propylthiouracil], in the test with B6 mouse, the “Ear hole size versus untreated B6 ear holes” value is given as “smaller”; the “Proliferation in ear hole wound” value is “impressive degree of epithelial proliferation, as well as muscle and adipocyte proliferation”. Also, the “Heart wound healing and epithelial growth at larger concentrations” value with C57B1/6 mice (C57B1/6 mice, PTU 2 or 3 mg/day) is “better healing and greater epithelial growth”. Also, in the test with C57B1/6 mice (setting [1]), the “Epithelial layer versus untreated C57B1/6 mice” value is reported as “more intact epithelial layer” and the “Growth of myocardium versus untreated C57B1/6 mice” value was “significantly greater growth of myocardium”.
Take `N[C@@H](Cc1cc(I)c(Oc2ccc(O)c(I)c2)c(I)c1)C(=O)O` [T3]: in the test on MRL mice, the “Healing of heart wound” value is given as “never healed”. Moreover, in the test with MRL mice (by day 15), the “Heart wound scarring / fibrotic tissue” value was “severely scarred, with a large degree of fibrotic tissue”.

For the origin of these results see US6852706B1, “Methods and compositions for healing heart wounds” (The Wistar Institute, priority 2000, dated 2005).
